# Laboratory results published in PMC8224802 (Pharmaceutics, 2021).
# Read-outs that look alike come from different tables or passages of the source.
# Key:
# [1] = Blood-to-plasma concentration ratio (rat whole blood); assay type: in vitro ADME; conditions: RPG and QCT 5 μM each
# Protocol: A plasma sample was obtained by centrifugation of the blood sample at 2000× g for 5 min.
# [2] = In vitro microsomal metabolism of RPG (disappearance) in HLM; assay type: in vitro ADME, human; conditions: for Km: human, human liver microsomes
# Protocol: At 0, 30, and 60 min after starting the metabolic reaction, a 50 μL aliquot of the incubation mixture was sampled and transferred to a clean 1.5-mL microcentrifuge tube containing 150 μL of ice-cold acetonitrile to terminate the metabolic reaction.
# The intrinsic metabolic clearance (CLint) was calculated as Vmax/Km. […] Max and Min are the initial and final Y values, respectively, and the power P represents the Hill coefficient. […] Vmax and Km are the same as those defined in Equation (2). The parameter α is indicative of the inhibition type. The mixed model is a general equation that includes competitive, uncompetitive, and noncompetitive inhibition as special cases. When α = 1, the mixed model is identical to a noncompetitive inhibition. When α is very large (α→∞) or very small (α→0), the mixed model becomes identical to competitive inhibition or uncompetitive inhibition, respectively.
# [3] = Microsomal protein binding by rapid equilibrium dialysis (RLM); assay type: in vitro ADME, rat
# Protocol: A 200 μL spiked samples and 400 μL PBS were placed into the “sample” and “buffer” chambers of the RED device, respectively. After 4-h incubation to equilibrate between the buffer and plasma compartments, the RED plate was sampled from both compartments. The samples were matrix-matched for analysis by addition of either diluted plasma or buffer; (a) blank diluted plasma added to the buffer samples and (b) blank buffer added to the diluted plasma sample, at a ratio of 50:50 v/v. The unbound fractions in microsomes and diluted plasma were determined by dividing the analyte/IS peak area ratios of the (a) sample by those of the (b) sample. The unbound fraction in diluted plasma (fu,d) was converted to the unbound fraction in undiluted plasma (fu) using a Kalvass equation as below (DF: dilution factor). (1) fu=1/DF/[(1/fu,d)−1]+1/DF
smiles,measurement,setting,value
"CCOc1cc(CC(=O)N[C@@H](CC(C)C)c2ccccc2N2CCCCC2)ccc1C(=O)O [RPG, Repaglinide]",Change of RB of RPG by the presence of QCT,[1],not significantly altered
same,"Vmax, metabolism of RPG","[2]; HLM 0.3 mg/mL, 1–500 μM RPG, Michaelis–Menten fit",2850 ± 417 pmol/min/mg protein
same,Km,"[2]; Km, metabolism of RPG, HLM 0.3 mg/mL, 1–500 μM RPG, Michaelis–Menten fit",27 to 69.4 µM
same,Km,"[2]; Table S3, source Figure 3, read-out: Km used for estimation of R",27 µM
same,Change of fuMIC of RPG by the presence of QCT,"[3]; RLM, RPG and QCT 5 μM each",not significantly altered
same,"fraction unbound at 4 h, 5 μM","[3]; rat, liver microsomes, read-out: fuMIC (unbound fraction in liver microsomes)",0.671 ± 0.009
